Results published in US20030212034A1, “Method of treatment of obesity and paralyzed muscle and ergogenic aids” (priority 2002, published 2003).

Legend:
Format in all cases: in vivo, rat
GLUT4 = GLUT4 western blot in 3-day denervated and contralateral muscles after AICAR injections
Method: (§1) Rats were anesthetized with ether and the sciatic nerve of the right hindlimb was severed. The left hindlimb was sham operated to serve as a control. Both skin wounds were closed with a metal clips. The rats used for the acute study were also implanted with a jugular catheter which was exteriorized on the back of the neck at the time of denervation for rapid administration of anesthesia.
Muscle was ground to a powder under liquid nitrogen and homogenized ([…]) in HEPES buffer [25 mM HEPES, 1 mM EDTA, 1 mM benzamadine, 1 mM 4-(2-aminoethyl)-benzene+sulfonyl fluoride, 1 μM leupeptin, 1 μM antitrypsin, 1 μM aprotinin, pH 7.5]. This homogenate was then diluted with water and Laemmli's buffer (1 mL homogenate:2 mL water: 1 mL buffer) immediately before loading. 20 μL of this homogenate were then loaded onto a 10% SDS-PAGE mini gel (Tris-HCl ready gels, BioRad, Hercules, Calif.). Samples were subjected to electrophoresis at 200 V for 45 minutes. Proteins were transferred from gel to nitrocellulose membrane at 100V for 50 minutes. Membranes were blocked in 5% non-fat milk (BioRad, Hercules, Calif.) in PBST (139 mM NaCl, 2.7 mM KH2PO4, 9.9 mM Na2HPO4, and 0.05% Tween-20) and were then left overnight with GLUT4 polyclonal antibody (Biogenesis, Kingston, N.H.) in 5% dried milk solution (1:5000 dilution). After washing twice in PBST, and twice in PBS (139 mM NaCl, 2.7 mM KH2PO4, 9.9 mM Na2HPO4), the membranes were exposed to horseradish peroxidase-conjugated donkey anti-rabbit IgG (Amersham Life Sciences, Arlington Heights, Ill.) for 1 h. at room temperature. After again washing twice with PBST and twice with PBS, the membranes were incubated in enhanced chemoluminescence-detection reagent and then visualized on enhanced chemoluminescence hyperfilm (Amersham Life Sciences). Relative amounts of GLUT4 were then quantified using a Hewlett Packard Scan Jet 6200C and SigmaGel software (SPSS, Chicago, Ill.). Western blot data are expressed as arbitrary units where individual values were divided by the mean basal GLUT4 value (sham operated leg/injected with 0.9%/NaCl solution).
Rats were injected either with AICAR (1 mg in 0.9% NaCl/g body weight) or a 0.9% NaCl solution ˜0, ˜24, and ˜48 hours after denervation and were then sacrificed ˜72 hours after denervation without injection. Rats were anesthetized with sodium pentobarbital (4.8 mg/100 g. body weight), soleus and gastrocnemius muscles from both sham and denervated sides were extracted, and muscles were quick frozen in liquid nitrogen and stored for analysis.
Rats were denervated as described above between 8:00 and 10:00 and were immediately injection with either 0.9% NaCl solution (n=4), 0.1 mg AICAR in 0.9% NaCl/g body weight (n=4), 0.5 mg AICAR in 0.9% NaCl/g body weight (n=3), or 1 mg AICAR in 0.9% NaCl/g body weight (n=4). Rats of each treatment group were subsequently injected with the respective AICAR solutions at ˜24 and ˜48 hours after denervation. Rats were killed ˜72 hours after denervation without an AICAR injection and muscles were collected as described above.

[1] = tested on: δ-Aminolevulinate synthase; experiment: Muscle δ-aminolevulinate synthase protein by western blot after AICAR injection
Method: […] Beginning with the first injection, controls were pair fed with AICAR-injected rats. […] Muscles were kept frozen at −70° C. until analyzed. Liver, heart, kidney, and fat pads were weighed.
For the chronic effects of AICAR injection muscles were analyzed for glycogen GLUT-4, hexokinase, lactate dehydrogenase, and several mitochondrial enzymes. Hassid, W. Z., & S. Abraham Methods Enzymol. 3:35-36, 1957. GLUT4 was quantitated by western blotting as described previously using GLUT4 polyclonal antibody RaIRGT, Biogenesis, Sandown, N.H.) and horseradish peroxidase-conjugated donkey anti-rabbit IgG (Amersham Life Science, Arlington Heights, Ill.). Holmes, B. F., et al. J. Appl Physiol 87:1990-1995, 1999. δ-Aminolevulinic acid synthase was determined using western blotting techniques as described previously. Li, B., et al. J. Biol. Chem. 274:17534-17540, 1999. […] Cytochrome c was detected by incubating the nitrocellulose blots with a rabbit polyclonal antibody against rabbit heart cytochrome c (Alpha Diagnostics International, San Antonio) followed by horseradish peroxidase-conjugated anti-rabbit immunoglobulin G. Antibody bound GLUT4, δ-Aminolevulinic acid synthase, and cytochrome c were visualized using enhanced chemiluminescence. Protein bands were quantified by densitometry.

[2] = tested on: acetyl-CoA carboxylase (ACC); experiment: ACC activity and citrate dependence in denervated and contralateral muscles after acute AICAR injection; conditions: for ACC activity vs saline, several citrate concentrations / ACC activity at 0.2 mM citrate vs saline-treated contralateral innervated soleus: acute AICAR 1 mg/g; for ACC activity vs saline, several citrate concentrations: FIG. 10; for ACC activity at 0.2 mM citrate vs saline-treated contralateral innervated soleus: FIG. 9
From the text: as §1
Rats were denervated between 8:30 a.m. and 10:30 a.m. and were then given 25 g of food. Rats were handled twice during the day to accustom them to being handled. The rats were given a single subcutaneous injection 24 hours. after surgery of either AICAR (1 mg/g body weight) in sterile 0.9% NaCl or with just 0.9% NaCl, and were subsequently anesthetized intravenously. Soleus and gastrocnemius muscles from both sham and denervated sides were extracted and quick frozen in liquid nitrogen for analysis. AMPK activity and acetyl-Co A carboxylase (ACC) activity were determined as previously described. Winder W W & Hardie D G, Am J. Physiol 270 (Endocrinol Metab 33): E299-E304, 1996. Because this analysis is done on homogenates prepared by ammonium sulfate precipitation, only those effects on AMPK activity modified by phosphorylation are measured. […] Because ACC is a target for phosphorylation by AMPK, and because ACC activity has been reported to decrease in response to phosphorylation by AMPK, ACC activity is measured to give an indication of the in vivo actions of AMPK.
Referring to FIG. 10, Citrate dependence of acetyl-CoA carboxylase (ACC) in denervated and contralateral innervated gastrocnemius muscles from rats treated with AICAR (1 mg AICAR in 0.9% NaCl/1 g body weight) or saline (0.9% NaCl) is illustrated. SE values were determined but are not shown (n=5).Curves were fitted to data by using the Hill equation and Grafit software (Sigma Chemical, St. Louis, Mo.). FIG. 10 graphs the specific activity of ACC in saline-treated and AICAR-treated gastrocnemius muscles at several different citrate concentrations.

NC(=O)c1ncn([C@@H]2O[C@H](CO)[C@@H](O)[C@H]2O)c1N [AICAR, 5-aminoimidazole-4-carboxamide-1-β-D-ribofuranoside]
GLUT4 content, percent intensity of saline-treated contralateral innervated controls (GLUT4; contralateral innervated gastrocnemius, AICAR 1 mg/g for 3 days): 130.1%
GLUT4 content, percent intensity of saline-treated contralateral innervated controls (GLUT4; denervated gastrocnemius, AICAR 1 mg/g for 3 days, saline denervated 60.1%): 106.6%
dose dependent response of GLUT4 vs saline-treated denervated gastrocnemius (GLUT4; denervated gastrocnemius, doses 0.1, 0.5, 1 mg/g, result for the 1 mg/g dose, FIG. 11): only dose that significantly raises GLUT4 content
increase of GLUT4 vs. saline-treated denervated gastrocnemius controls (GLUT4; denervated gastrocnemius, subcutaneous AICAR injections): 80%
GLUT4 content, percent of saline-treated contralateral controls (GLUT4; denervated soleus, AICAR 1 mg/g for 3 days, saline denervated 72.6%, not significant): 85.4%
dose dependent response of GLUT4 vs saline-treated innervated gastrocnemius (GLUT4; innervated gastrocnemius, doses 0.1, 0.5, 1 mg/g, result for the 1 mg/g dose, FIG. 11): only dose that significantly raises GLUT4 content
effect of a single injection on δ-aminolevulinate synthase ([1]; single AICAR injection 16 hours prior to tissue collection, preliminary, data not shown): negative results
muscle content of δ-aminolevulinic acid synthase vs saline controls ([1]; white quadriceps, AICAR 4 weeks, FIG. 2): significantly increased
ACC activity vs saline, several citrate concentrations ([2]; contralateral innervated gastrocnemius): significantly decrease ACC activity
ACC activity at 0.2 mM citrate vs saline-treated contralateral innervated soleus ([2]; contralateral soleus): significantly (P<0.01) decreased
ACC citrate activation constant (Ka) ([2]; denervated gastrocnemius, acute AICAR 1 mg/g s.c., saline-treated denervated 3.6±0.3): 13.2±1.1
ACC maximal velocity (Vmax) as a function of citrate concentration ([2]; denervated gastrocnemius, acute AICAR 1 mg/g s.c., saline-treated denervated 36.7±5): 24.7±1.9
ACC activity vs saline, several citrate concentrations ([2]; denervated gastrocnemius): significantly decrease ACC activity
ACC activity at 0.2 mM citrate vs saline-treated contralateral innervated soleus ([2]; denervated soleus): significantly (P<0.01) decreased
